Experimental data taken from US20050244427A1, “Isolation and production of bioactive marine products” (priority 2004, published 2005).

system: Symbiodinium cells isolated from Eunicea fusca; experiment: Effect of plant growth factors on fuscol production in in vitro cultures of alga cells isolated from Eunicea fusca; type: cell-based; conditions: One hundred μM added for 48 hours after 24 hours in culture medium; compared with untreated control cells; RP HPLC, detection at 240 nm; FIG. 4
Protocol: FIG. 4 is a graph showing the induction of fuscol production in Symbiodinium cells isolated from Eunicea fusca with Methyl Jasmonate, Giberellic Acid and Salicyclic Acid.
Live Eunicea fusca was collected from Florida Keys. The tissue was homogenized in a blender using 50:50 DI/Filtered Seawater (FSW). The homogenate was strained into 50 mL Falcon tubes and centrifuged at 160×g for 5 minutes. The supernatant was discarded and the pellet was resuspended in 50:50 DI/FSW. The sample was centrifuged again, followed by three rounds of rinsing and centrifuging until the supernatant was clear. The cell pellet was layered over a Percoll gradient (30% and 70%) and centrifuged at 38×g for 10 minutes. Cells on the 30/70% interface were collected using a plastic pipet and rinsed two times in 50:50 DI/FSW water. Cells were examined by light microscopy to assess cell purity and to count the number of cells. 2.38×10^8 cells (500 μL) were removed from the sample and diluted to 2 mL with tris buffer (20 mM containing 3 mM EDTA, 5 mM MgCl2 and 5 mM β-mercaptoethanol). The sample was incubated with 1μ Ci ^3H-GGPP for 24 hrs at 29° C. and 180 RPM. The cells were centrifuged and the buffer was removed using a syringe and filtered into a scintillation vial. The cells were extracted with methylene chloride and ethyl acetate (8 times) followed by filtration into the scintillation vial containing the buffer. The crude extract was dried and weighed. The dried extract weighed 7.08 mg. The extract was partitioned between MeOH:H2O 9:1 and hexanes. The hexanes layer was dried and weighed. This layer weighed 4.77 mg. Water was added to make MeOH:H2O at a ratio of 1:1 and partitioned with methylene chloride. The CH2Cl2 layer was dried and weighed. This layer weighed 1.67 mg.
Referring to FIG. 4, the effect of growth factors on the production of fuscol in in vitro cultures of alga cells isolated from Eunicea fusca (as described above) was analyzed. […] The cells were then extracted and fuscol concentrations were determined by standard chromatographic methods (RP HPLC, detection at λ 240 nm).

Compound | production of fuscol (fuscol concentration in extracted cells)
CC/C=C\CC1C(=O)CCC1CC(=O)OC (stereo not drawn) [methyl jasmonate] | Significantly more fuscol was produced
C=C1C[C@]23CC1(O)CC[C@H]2[C@@]12C=C[C@H](O)C(C)(C(=O)O1)[C@H]2[C@@H]3C(=O)O [giberellic acid] | Significantly more fuscol was produced
O=C(O)c1ccccc1O [salicyclic acid] | Significantly more fuscol was produced
